Laboratory results from patent US12129235B2, “TSPO binders” (The University Court of the University of Glasgow, priority 2018, dated 2024).

Columns and labels:
[1] = Radiometabolite and arterial blood analysis; assay type: in vivo, rats; conditions: rat; 120 minutes post-injection
Procedure: In a separate set of experiments (radiometabolite studies), the femoral artery was cannulated for blood sampling and the radiotracer was administered i.v. via tail vein. Surgical cannulation of femoral vein and artery was performed as follows: polyethylene catheters (PE50) filled with heparinized saline (20 IU/mL) were inserted into the left femoral artery or vein with the help of a stereomicroscope and securely fastened with ligatures (6-0 silk thread). Catheters were held in place with surgical glue. Body temperature was maintained by heated scanner bed or heated mat and monitored by rectal thermometer. Vital signs, including heart rate and respiration rate were monitored continuously during the experiments.
Arterial blood samples were collected at 2, 5, 10, 20, 30, 60 and 120 minutes post-radiotracer administration (69.8±9.2 MBq, n=17 rats). […] Following blood collection, all samples were kept on ice until analyzed. Radioactivity in whole blood and plasma was assessed using a well-type γ-counter using a 400-1400 keV window (Perkin Elmer Wizzard2, USA). Plasma samples (400 μL) were processed by acetonitrile denaturation and analyzed by HPLC (Ultimate2000, ThermoFisher, UK) on a Luna C18(2) column (Luna C18(2), 10×250 mm, 10 μm, Phenomenex, UK) with a mobile phase of acetonitrile/water 70/30 at a flow rate of 4 mL/min to estimate the parent fraction. […]

[2] = Observation after in vivo administration of ^18F-LW223
TSPO [3] = biological target: T1, TSPO (Rattus norvegicus, UniProt P16257); test: ^18F-LW223 PET blocking and displacement with PK11195 (1 mg/kg) in rats; assay type: in vivo; set-up: from tissue; host or cells: living Sprague-Dawley rats (brain, heart, lungs and other organs); conditions: for reduction of radiotracer binding post-blocking / VT post-blocking: PK11195 1 mg/kg; for displacement from target sites at equilibrium time point: PK11195 1 mg/kg after 60 min; for VT post-blocking: mean±SEM, n=3
Procedure: 13 PET scans were performed with ^18F-LW223 (mean injected radioactivity of 19.55±2.1 MBq). Scans were acquired following i.v. bolus injection of ^18F-LW223 via tail vein or femoral vein shunt (invasive kinetic modelling experiments with β-probe automatic blood sampler) in rats. Test-retest scans were obtained in three rats following i.v. bolus of the radiotracer, with two weeks interval between test and retest imaging sessions. […] These scans were compared to baseline scans where no PK11195 was used. For displacement studies, rats received i.v. administration of ^18F-LW223 and scanned continuously for 120 min. […] A male and female mouse were initially used to derive the dosimetry estimates for ^18F-LW223 over a 4 h dynamic scan, followed by additional mice in a further study (in a study with a mean injected radioactivity of 10.83±5.6 MBq).
All PET data were acquired using a preclinical PET/CT small animal scanner (nanoPET/CT, Mediso, Hungary). A CT scan (semi-circular full trajectory, maximum field of view, 480 projections, 50 kVp, 300 ms and 1:4 binning) was acquired for attenuation correction. Immediately following radiotracer administration, a 120 minutes emission scan was obtained using 3-dimentional 1:5 mode and re-binned as follows: 18×10 s; 2×30 s; 1×60 s; 2×2 min; 10×5 min; 6×10 min. PET images were reconstructed using Mediso's iterative Tera-Tomo 3D reconstruction algorithm and the following settings: 4 iterations, 6 subsets, full detector model, low regularization, spike filter on, voxel size 0.4 mm and 400-600 keV energy window. PET data were corrected for randoms, scatter and attenuation.
Image Processing and Data Analysis Reconstructed scans were imported into PMOD 3.8 software (PMOD Technologies, Switzerland). Volumes of interest (VOIs) were manually drawn around organs of interest. Time-activity curves (TACs) were generated and standardized uptake values (SUVs) calculated as concentration in the VOI divided by injected dose divided by animal weight. Kinetic modelling was performed using compartmental analysis (1-Tissue (1T) and 2-Tissue (2T) models) and graphical analysis (Logan plot and Ichise multivariate analysis) to estimate the volume of distribution (VT) in different tissues (Innis et al.; Logan; and Ichise et al.). Model fitting performance was evaluated using the Akaike information criterion (AIC) and the model selection criterion (MSC), where the preferred model had the lowest AIC and highest MSC. The selected identifiability criterion was the percentage standard error (% SE) of VT estimates. Kinetic modeling was also performed using graphical analysis to estimate the distribution volume ratio (DVR) in tissue regions and organs where the reference region VOI was the blood pool VOI in the left ventricle (Logan et al.).

TSPO [4] = biological target: T1, TSPO; test: ^18F-LW223 PET/CT in rat model of myocardial infarction; assay type: in vivo, rats; set-up: from tissue; host or cells: living Sprague-Dawley rats (brain, heart, lungs and other organs); conditions: heart, brain and lungs; 7 days after myocardial infarction
Description: Rats underwent permanent of ligation of the left anterior descending coronary artery to induce myocardial infarction and after 7 days were imaged using ^18F-LW223 PET/CT (see FIG. 11). Naive rats were used as a healthy control for comparison. […] This indicates a myocardial infarction mediated increase in expression of TSPO within these organs which may also be interpreted as increased systemic inflammation.

Compound: CC[C@@H](C)N(C)C(=O)c1nc2ccccc2c(-c2ccccc2)c1C[18F] [^18F-LW223, (R)-(N-sec-Butyl)-3-[19-fluoro]-methyl-N-methyl-4-phenylquinoline-2-carboxamide]
- parent in arterial blood [1]: approximately 70%
- negative effects following administration in vivo [2]: no negative effects were apparent
- reduction on the SUV values post-blocking compared with baseline (TSPO [3]; PK11195 1 mg/kg prior to tracer): 64-81%
- reduction of radiotracer binding post-blocking (TSPO [3]; brain): 12%
- displacement from target sites at equilibrium time point (TSPO [3]; brain): 29%
- reduction of radiotracer binding post-blocking (TSPO [3]; heart): 35%
- displacement from target sites at equilibrium time point (TSPO [3]; heart): 52%
- VT post-blocking (TSPO [3]; heart): 6.19±0.38
- reduction of radiotracer binding post-blocking (TSPO [3]; lungs): 56%
- displacement from target sites at equilibrium time point (TSPO [3]; lungs): 40%
- VT post-blocking (TSPO [3]; lungs): 2.27±0.07
- SUV relative to the blood pool versus naive rats (TSPO [4]): increase
